Experimental data published in patent US9150531B2, “Tricyclic lactones for treatment of cancer” (Glactone Pharma Development AB, priority 2010, dated 2015).

Assays:
DU145 [1] = test: WST-1 proliferation assay, DU145 cells (Example 17); type: cell-based, human; settings: 25.0 μM
DU145 [2] = test: as above; type: cell-based, human
Experimental: The human prostate cancer cell line DU145 was used. The cells were cultured in RPMI 1640 medium supplemented with 10% FBS and 1% penicillin-streptomycin. All cells were incubated at 37° C. in a humidified atmosphere of […] and 5% CO2.
WST-1 proliferation assay was performed to study the effects of the test items on the proliferation and viability of cultured prostate cancer cells. DU145 cells were cultured in 96-well plates at the density of 2 000 cells/well in 200 μl of medium. Cells were allowed to set for 24 h and 48 h. The cells were treated with 0.5, 1.0, 2.5, 5.0, 10, and 50 μM of the specific substance for 24 h and 48 h. Samples were made in triplicate. 20 μl WST-1 solution (Roche Applied Science, Mannheim, Germany) was added per well and incubated at 37° C. for 4 h. The absorbance of each well was measured using a scanning multiwell spectrophotometer, ELISA reader at a wavelength of 450 nm and reference wavelength of 690 nm. The results are presented as percent of untreated control cells or the absorbance value.

[3] = test system: STAT-3 transcription factor; test: STAT3 inhibition, luciferase reporter (4xM67 pTATA TK-Luc) in HeLa cells stimulated with γ-Interferon; type: cell-based; settings: Homo sapiens, γ-Interferon 8 h, luciferase activity, read-out: Anti STAT3 IC50
Experimental: HeLa cells (4×10^4/ml) were transiently transfected with a luciferase reporter plasmid (4×M67 pTATA TK-Luc) driven by artificial promoter containing 4 repeated M67 binding sites in tandem for the STAT-3 transcription factor. The transfections were performed for 24 h using Roti-Fect reagent (Carl Roth, Karlsruhe, Germany) according to the manufacturer's recommendations. After incubation with different concentrations of the extracts for 30 min the transfected cells were stimulated for 8 h with γ-Interferon. Then, the cells were lysed in 25 mM Tris-phosphate pH 7.8, 8 mM MgCl2, 1 mM DTT, 1% Triton X-100, and 7% glycerol. Luciferase activity was measured as described for 5.1 cells.
γ-Interferon induces an average of 5-6 fold induction of the luciferase activity compared to non stimulated cells and this represent the index of transactivation that is represented in our experiment as the maximum levels of γ-Interferon-induced STAT-3 activation (100%). Results below represent the IC50 for each compound in this assay. The IC50 means the concentration of each compound that reduces luciferase activity by 50% and it was calculated by GraphPad software.

LNCaP-IL6 cells = test: WST-1 proliferation assay, LNCaP-IL6 cells; type: cell-based, human
Experimental: (§1) The human prostate cancer cell lines DU145, LNCaP (from the American Type culture Collection, ATCC) and long-term interleukin-6 (IL-6) stimulated LNCaP cells (LNCaP-IL6 cells) (Hobisch, Ramoner et al. 2001) were used. The cells were cultured in RPMI 1640 medium supplemented with 10% FBS and 1% penicillin-streptomycin. All cells were incubated at 37° C. in a humidified atmosphere of […] and 5% CO2.
(§2) WST-1 proliferation assay was performed to study the effects of the test items on the proliferation and viability of cultured prostate cancer cells. LNCaP and DU145 cells were cultured in 96-well plates at the density of 2 000 cells/well in 200 μl of medium. Cells were allowed to set for 24 h. The cells were treated with 0, 2.5, 5 or 10 μM of the specific substance for 24 h and 48 h. Samples were made in triplicate. 20 μl WST-1 solution (Roche Applied Science, Mannheim, Germany) was added per well and incubated at 37° C. for 4 h. The absorbance of each well was measured using a scanning multiwell spectrophotometer, ELISA reader at a wavelength of 450 nm and reference wavelength of 690 nm. The results are presented as percent of untreated control cells or the absorbance value.

DU145 [4] = test: WST-1 proliferation assay, DU145 cells (Example 16); type: cell-based, human
Experimental: as §1, §2

SMILES | Proliferation (vs control) Du145 (%) 24 h (DU145 [1]) | Proliferation (vs control) Du145 (%) 48 h (DU145 [1]) | Proliferation (vs control) Du145 (%) 24 h (DU145 [2]; 0.5 μM) | Proliferation (vs control) Du145 (%) 48 h (DU145 [2]; 0.5 μM) | Proliferation (vs control) Du145 (%) 24 h (DU145 [2]; 1.0 μM) | Proliferation (vs control) Du145 (%) 48 h (DU145 [2]; 1.0 μM) | Proliferation (vs control) Du145 (%) 24 h (DU145 [2]; 2.5 μM) | Proliferation (vs control) Du145 (%) 48 h (DU145 [2]; 2.5 μM) | Proliferation (vs control) Du145 (%) 24 h (DU145 [2]; 5.0 μM) | Proliferation (vs control) Du145 (%) 48 h (DU145 [2]; 5.0 μM) | Proliferation (vs control) Du145 (%) 24 h (DU145 [2]; 10.0 μM) | Proliferation (vs control) Du145 (%) 48 h (DU145 [2]; 10.0 μM) | Proliferation (vs control) Du145 (%) 24 h (DU145 [2]; 50.0 μM) | Proliferation (vs control) Du145 (%) 48 h (DU145 [2]; 50.0 μM) | also measured
C[C@H]1C=C2C(=O)O[C@@H]3C[C@@H](c4ccccc4)[C@H](C1)[C@]23O (stereo in doubt) [Example 4, 5,5a,6,7,7a,7b-hexahydro-7b-hydroxy-4-methyl-6-phenyl-indeno[1,7-bc]furan-2(4H)-one] | 22.17% | 21.83% | 125.24% | 161.90% | 76.74% | 106.97% | 86.48% | 106.23% | 91.39% | 73.13% | 45.29% | 59.35% | 18.31% | 11.34% | –
C[C@H]1C=C2C(=O)O[C@@H]3CC[C@H](C1(C)C)[C@]23O (stereo in doubt) [Example 5, 5,5a,6,7,7a,7b-hexahydro-7b-hydroxy-4,5,5-trimethyl-indeno[1,7-bc]furan-2(4H)-one] | 28.13% | 13.26% | 105.62% | 98.92% | 101.40% | 93.59% | 72.14% | 53.09% | 54.75% | 35.53% | 39.62% | 29.96% | 14.36% | 8.51% | –
COC(=O)C1=C[C@H](C)C[C@H]2C[C@H](c3ccccc3)[C@@H]3O[C@]123 (stereo in doubt) [Example 7, methyl 5-methyl-2-phenyl-1a,2,3,3a,4,5-hexahydroindeno[1,7a-b]oxirene-7-carboxylate] | – | – | – | – | – | – | – | – | – | – | – | – | – | – | IC50 [3]: 1830 nM; % Proliferation (vs control) 24 h LNCaP-IL6 (LNCaP-IL6 cells; 2.5 uM): 81.79%; % Proliferation (vs control) 48 h LNCaP-IL6 (LNCaP-IL6 cells; 2.5 uM): 82.60%; % Proliferation (vs control) 24 h LNCaP-IL6 (LNCaP-IL6 cells; 5 uM): 81.21%; % Proliferation (vs control) 48 h LNCaP-IL6 (LNCaP-IL6 cells; 5 uM): 85.26%; % Proliferation (vs control) 24 h LNCaP-IL6 (LNCaP-IL6 cells; 10 uM): 70.45%; % Proliferation (vs control) 48 h LNCaP-IL6 (LNCaP-IL6 cells; 10 uM): 71.27%; % Proliferation (vs control) 24 h DU145 (DU145 [4]; 2.5 uM): 90.64%; % Proliferation (vs control) 48 h Du145 (DU145 [4]; 2.5 uM): 95.09%; % Proliferation (vs control) 24 h DU145 (DU145 [4]; 5 uM): 68.55%; % Proliferation (vs control) 48 h Du145 (DU145 [4]; 5 uM): 75.05%; % Proliferation (vs control) 24 h DU145 (DU145 [4]; 10 uM): 63.86%; % Proliferation (vs control) 48 h Du145 (DU145 [4]; 10 uM): 76.58%
